Assay results reported in paper PMC12578388, “Allosteric modulation of the solute carrier transporter SLC39A8 potentiates manganese and cadmium uptake” (The Journal of Clinical Investigation, 2025).

Columns and labels:
Assay type in all cases: cell-based
[1] = molecular target: T1, pig SLC39A8 (Sus scrofa, UniProt A0A480EKF5, F327C); test: Cd uptake in cells expressing mutant pig SLC39A8 (gain of EFV sensitivity)
T1 sequence (A0A480EKF5 20-461 F327C): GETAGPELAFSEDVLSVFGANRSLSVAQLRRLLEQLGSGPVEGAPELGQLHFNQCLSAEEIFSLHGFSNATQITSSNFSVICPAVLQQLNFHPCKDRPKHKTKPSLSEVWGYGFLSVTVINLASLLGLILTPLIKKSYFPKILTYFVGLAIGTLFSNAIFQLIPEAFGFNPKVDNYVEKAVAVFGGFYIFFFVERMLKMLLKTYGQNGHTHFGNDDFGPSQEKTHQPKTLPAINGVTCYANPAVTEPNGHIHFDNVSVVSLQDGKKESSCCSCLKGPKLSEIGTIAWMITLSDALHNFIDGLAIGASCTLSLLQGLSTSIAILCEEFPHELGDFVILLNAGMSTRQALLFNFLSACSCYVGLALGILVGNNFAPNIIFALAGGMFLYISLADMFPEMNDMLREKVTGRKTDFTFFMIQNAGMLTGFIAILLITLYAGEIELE

[2] = molecular target: T2, rat SLC39A8 (Rattus norvegicus, UniProt Q5FVQ0, Y328C); test: Cd uptake in cells expressing mutant rat SLC39A8 (gain of EFV sensitivity)
T2 sequence (Q5FVQ0 20-462 Y328C): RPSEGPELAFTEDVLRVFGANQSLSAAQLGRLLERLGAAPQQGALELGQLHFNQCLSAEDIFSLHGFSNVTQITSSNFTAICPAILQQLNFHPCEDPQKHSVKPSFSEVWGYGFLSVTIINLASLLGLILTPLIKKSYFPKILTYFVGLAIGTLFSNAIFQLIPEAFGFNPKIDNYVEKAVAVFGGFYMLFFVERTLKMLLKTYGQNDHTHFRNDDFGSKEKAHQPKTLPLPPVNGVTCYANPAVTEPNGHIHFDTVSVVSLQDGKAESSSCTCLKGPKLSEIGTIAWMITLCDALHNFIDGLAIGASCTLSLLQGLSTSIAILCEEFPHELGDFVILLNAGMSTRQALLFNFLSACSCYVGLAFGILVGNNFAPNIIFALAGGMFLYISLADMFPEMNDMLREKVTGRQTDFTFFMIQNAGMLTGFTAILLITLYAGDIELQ

[3] = molecular target: T3, mouse SLC39A8 (Mus musculus, UniProt Q91W10); test: Cd uptake in cells expressing mouse SLC39A8
T3 sequence (Q91W10 20-462): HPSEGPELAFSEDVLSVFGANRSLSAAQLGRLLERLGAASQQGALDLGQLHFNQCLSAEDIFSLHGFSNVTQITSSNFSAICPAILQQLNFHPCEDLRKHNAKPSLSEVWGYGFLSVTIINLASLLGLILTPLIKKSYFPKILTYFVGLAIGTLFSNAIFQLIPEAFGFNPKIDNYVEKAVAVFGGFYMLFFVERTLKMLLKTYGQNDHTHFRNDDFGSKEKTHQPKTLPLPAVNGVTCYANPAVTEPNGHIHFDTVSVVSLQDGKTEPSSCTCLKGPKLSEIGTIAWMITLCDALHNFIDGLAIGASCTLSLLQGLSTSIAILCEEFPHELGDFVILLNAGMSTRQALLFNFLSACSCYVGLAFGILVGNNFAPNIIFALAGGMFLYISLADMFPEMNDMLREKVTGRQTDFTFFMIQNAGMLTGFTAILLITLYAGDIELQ

Q: `O=C1Nc2ccc(Cl)cc2[C@@](C#CC2CC2)(C(F)(F)F)O1` [compound 1, efavirenz] was tested. Which “Cd uptake in cells expressing mutant pig SLC39A8 (gain of EFV sensitivity)” value [1] did it give?
A: EFV sensitivity could be created by replacing these residues with cysteine in pig F327C and rat Y328C, respectively

Q: What about the “Cd uptake in cells expressing mutant rat SLC39A8 (gain of EFV sensitivity)” value [2] of the same compound?
A: EFV sensitivity could be created by replacing these residues with cysteine in pig F327C and rat Y328C, respectively

Q: And the “Cd uptake in cells expressing mouse SLC39A8” value [3]?
A: EFV was able to enhance Cd uptake in cells expressing mouse SLC39A8 but not chicken, frog, or zebrafish
